Test results reported in patent US20240374631A1, “A COMPOSITION FOR IMPROVING GUT MICROBIOTA, BEHAVIOURAL PATTERN, ALPHA-SYNUCLEIN LEVELS, SLEEP PATTERN AND/OR SERUM MELATONIN” (GN Corporation Co Ltd, priority 2021, published 2024).

Test system: α-synuclein on the neuroblastoma cell line (SHSY-5Y Tet-On: SCC291)
Assay: Expression of α-synuclein on neuroblastoma cell line stimulated with beta-glucan or PMA (glutaraldehyde-fixed cellular ELISA, 3 days)
Format: cell-based
Details: BG-AF202 50 μg/mL, PMA 500 ng/mL
Description: Neuroblastoma cell line (SHSY-5Y Tet-On: SCC291) (MERCK) was suspended in 10% FCS-DMEM/F12 medium and seeded into 96-well microplates to achieve a cell count of 5×10^4 cells/well. After 24 hours of incubation, the cells were washed with 10% FCS-DMEM/F12 medium and new 10% FCS-DMEM/F12 medium was added.
Then, β-glucan AFO-202 (50 μg/mL) and PMA (500 ng/mL) (Sigma) were added to the medium, and the cells were cultured for 1 to 3 days. After incubation, the wells were washed three times with PBS and fixed in 0.25% glutaraldehyde-PBS for 1 hour at room temperature. After fixation, the wells were washed three times with PBS-0.05% Tween (PBS-T). After washing the wells with PBS-T, 50 μL of 500-fold diluted α-synuclein polyclonal rabbit antibody (proteintech Co. 10842-1-AP) was added to the wells and incubated at room temperature for 1 h. Then, 2% BSA-PBS-T was added and left for 1 h (to block non-specific reactions).
After 1 hour, the wells were washed with PBS-T and 50 μL of biotin-labeled anti-rabbit IgG antibody (Cosmo Bio) diluted 5,000-fold was added to the wells and the reaction was carried out for 40 minutes at room temperature. […]
After that, the absorbance (OD value) was measured with a microplate reader (450 nm) (Tosoh). Data were expressed as […] value (sample OD value−blank OD value). The expression rate was calculated based on the control (None). […]

In the case of `CCCCCCCCCCCCCC(=O)O[C@@H]1[C@@H](C)[C@@]2(O)[C@@H](C=C(CO)C[C@]3(O)C(=O)C(C)=C[C@@H]23)[C@@H]2C(C)(C)[C@]12OC(C)=O` [PMA], the “α-synuclein expression (%) vs. None” value is reported as 50.1% and the δOD value (None 0.281) is reported as 0.166.
